Like-named read-outs stand apart in the source and are kept apart here. Numbered stars: 1 amine (or outer) side, 2 acyl side, 3 side chain; on linkers, the order of the positions; unused ones are H or OH. Bridge positions count the residues as written; N and C are the ends. Square brackets hold non-standard residues; d marks the D form. Peptide text beside a SMILES is read from it. N(2-Aminoethyl)Gly = O=C(CN(CCN[*:3])[*:1])[*:2]; CO = O=C([*:1])[*:2]; Nlys = NCCCCNCC(=O)O
How the values were obtained:
α4β1-VCAM-1 Fc chimera = target: T1, α4β1-VCAM-1 Fc chimera (Homo sapiens, UniProt P05556+P13612); test: ELISA solid-phase ligand-receptor binding, integrin α4β1 to VCAM-1 Fc chimera
T1 construct: purchased R&D Systems Co (Minneapolis, MN)
Protocol: (§1) Recombinant human VCAM-1 and MadCAM-1 (3 mg/mL in phosphate-buffered saline containing divalent cations), were immobilized on the wells of a 96-well ELISA plate (Dynatech Immulon) by overnight incubation at 4 °C. After washing with HBSST (Hanks’ Balanced Salt solution containing calcium and magnesium and 0.05% Tween-20) the plates were blocked with 5% BSA in HBSST by incubation at 37 °C for 1 h. The plates were washed with HBSST, and recombinant human integrin α4β1 or α4β7 (3 mg/mL) was added in the presence or absence of competitor cyclic peptides, disintegrins, or monoclonal anti-integrin antibodies dissolved in HBSS containing 1% BSA. The plates were thereafter incubated at 30 °C for 3 h, as time-binding had reached a plateau, and then washed 3 times with HBSST. Bound integrins were quantitated using primary anti-integrin polyclonal and monoclonal antibodies at a concentration of 0.5 mg/mL in HBSST containing 1% BSA, and incubated at 37 °C for 1 h. The plates were washed 3 times with HBSST and secondary antibodies- alkaline phosphatase (AP) conjugated (Sigma Co.) were added at dilution 1:1000 and incubated at 37 °C for 1 h. Thereafter, the plates were washed 3 times with HBSST and twice with HBSS and the alkaline phosphatase substrate 4-nitrophenyl phosphate was added to the wells for 30 min. The plates were read using Tecan Spectrophotometer at 405 nm. The level of nonspecific binding was measured in each experiment by determining the level of binding to wells coated with BSA alone.

α1β1-collagen IV = target: T2, α1β1-collagen IV (Homo sapiens, UniProt P05556+P56199); test: Adhesion of α1-K562 overexpressor cells to immobilized collagen IV; assay type: cell-based; settings: α1-K562 overexpressed cells; 30 min at 37 °C; read-out: IC50 α1β1-collagen IV
T2 construct: expressed in transfected cells; host or cells: K562 transfected with α1 integrin (gift of Dr. M. Hemler)
Protocol: (§2) Cell adhesion assay was carried out as previously described[47] with minor modifications. The day before the experiment, each well was coated with VCAM-1 (3 mg/mL) immobilized on the 96-well plate in PBS by overnight incubation at 4 °C. Thereafter, nonspecific binding was blocked by incubating the wells with 1% (w/v) bovine serum albumin (BSA) in Hank’s Balanced Salt Solution (HBSS) containing 5 mM MgCl2 at room temperature for 1 h before use. The cells were labeled by incubation with 12.5 μM 5-chloromethylfluorescein diacetate (CMFDA) in HBSS without 1% BSA at 37 °C for 30 min. The labeled cells were then centrifuged at 1000 rpm and washed twice with HBSS containing 1% BSA to remove excess CMFDA. Labeled cells (about 1 × 10^5 cells/well) were plated on each well in the presence or absence of visabrons and incubated at 37 °C for 60 min. Unbound cells were removed by washing the wells three times with 1% (w/v) BSA in HBSS, and bound cells were lysed by the addition of 0.5% Triton X-100 (diluted in DDW). The fluorescence in each well was quantified with a SPECTRAFluor Plus plate reader (Tecan), at λex = 485 nm and λem = 530 nm. To determine the number of adhered cells from the fluorescence values, a standard curve was generated by serial dilution of known numbers of CMFDA-labeled cells. […]
(§3) Table S6. TMLD- linear peptides inhibition of adhesion of integrin expressing cells to the respective immobilized ligands a a The cells were incubated for 30 min at 37 °C with the cells (1 x 105) in the 96 -well plate, previously covered with extracellular matrix ligand, in 100 µL of HBSS containing calcium and magnesium. After being washed with the same buffer, the adhered cells were lysed by Triton X-100, and the plate was read using Tecan spectrofluorimeter. The inhibitory dose 50% (IC 50) values represent ing mean ± standard deviatio ns (n=6) were calculated from dose response curves. bJurkat cells,VCAM -1; c α9-SW480 overexpressing cells, VCAM-1; d α1-K562 overexpressing cells, collagen IV ;e α2-K562 overexpressing cells, collagen I; f K562 wild type

[1] = target: T3, α4β1 (Jurkat lymphocytes-VCAM-1) (Homo sapiens, UniProt P05556+P13612); test: Adhesion of Jurkat lymphocytes to immobilized VCAM-1; assay type: cell-based
T3 construct: host or cells: Jurkat (untreated or TNFα-treated)
Protocol: as §2, §3

α9β1-VCAM-1 Fc chimera = α9β1-VCAM-1 Fc chimera (Homo sapiens, UniProt P05556+Q13797); test: ELISA binding assay, α9β1 to VCAM-1 Fc chimera
α4β7-MAdCAM-1 Fc chimera = target: T4, α4β7-MAdCAM-1 Fc chimera (Homo sapiens, UniProt P13612+P26010); test: ELISA solid-phase ligand-receptor binding, integrin α4β7 to MAdCAM-1 Fc chimera
T4 construct: purchased R&D Systems Co (Minneapolis, MN)
Protocol: as §1

α2β1-collagen I = target: T5, α2β1-collagen I (Homo sapiens, UniProt P05556+P17301); test: Adhesion of α2-K562 overexpressor cells to immobilized collagen I; assay type: cell-based; settings: α2-K562 overexpressed cells; 30 min at 37 °C; read-out: IC50 α2β1-collagen I
T5 construct: expressed in transfected cells; host or cells: K562 transfected with α2 integrin (gift of Dr. M. Hemler)
Protocol: as §2, §3

α5β1-fibronectin = target: T6, α5β1-fibronectin (Homo sapiens, UniProt P05556+P08648); test: Adhesion of wild-type K562 cells to immobilized fibronectin; assay type: cell-based; settings: wild-type K562 (α5β1); 30 min at 37 °C; read-out: IC50 α5β1-fibronectin
T6 construct: host or cells: K562 wild type
Protocol: as §2, §3

[2] = Jurkat treated with TNF-α (10 ng/mL) for 24 h, read-out: IC50 Jurkat lymphocytes-VACAM-1 TNFα
[3] = untreated Jurkat lymphocytes (α4β1), read-out: IC50 Jurkat lymphocytes-VACAM-1 control

Sequence of α9β1-VCAM-1 Fc chimera (Q13797 30-1035, change not shown): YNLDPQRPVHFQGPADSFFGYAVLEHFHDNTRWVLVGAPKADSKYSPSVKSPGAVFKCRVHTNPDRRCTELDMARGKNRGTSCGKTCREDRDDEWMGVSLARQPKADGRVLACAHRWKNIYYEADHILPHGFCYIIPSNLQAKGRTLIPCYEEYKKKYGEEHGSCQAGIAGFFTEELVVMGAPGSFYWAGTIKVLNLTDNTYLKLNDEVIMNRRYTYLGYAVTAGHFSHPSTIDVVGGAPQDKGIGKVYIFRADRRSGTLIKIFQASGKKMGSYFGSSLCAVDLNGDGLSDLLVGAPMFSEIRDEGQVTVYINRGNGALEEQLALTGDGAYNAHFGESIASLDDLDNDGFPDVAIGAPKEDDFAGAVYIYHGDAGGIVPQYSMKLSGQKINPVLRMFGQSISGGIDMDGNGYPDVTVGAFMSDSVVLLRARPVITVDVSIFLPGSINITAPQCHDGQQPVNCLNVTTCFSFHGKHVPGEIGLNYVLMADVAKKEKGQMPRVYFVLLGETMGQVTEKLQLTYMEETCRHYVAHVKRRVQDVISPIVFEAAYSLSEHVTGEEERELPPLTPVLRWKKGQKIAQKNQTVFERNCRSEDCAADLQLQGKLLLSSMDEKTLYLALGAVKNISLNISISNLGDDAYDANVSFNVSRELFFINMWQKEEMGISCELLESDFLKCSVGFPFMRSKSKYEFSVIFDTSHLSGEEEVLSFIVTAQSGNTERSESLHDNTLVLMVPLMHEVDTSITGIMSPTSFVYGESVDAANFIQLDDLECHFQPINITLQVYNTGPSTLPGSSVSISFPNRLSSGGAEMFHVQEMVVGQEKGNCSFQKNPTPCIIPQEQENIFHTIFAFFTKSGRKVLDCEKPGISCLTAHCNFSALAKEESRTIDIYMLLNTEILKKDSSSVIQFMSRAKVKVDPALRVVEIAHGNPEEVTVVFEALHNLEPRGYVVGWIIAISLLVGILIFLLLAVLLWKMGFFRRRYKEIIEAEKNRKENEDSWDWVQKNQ
Sequence of α9β1-VCAM-1 Fc chimera (P05556 21-798, change not shown): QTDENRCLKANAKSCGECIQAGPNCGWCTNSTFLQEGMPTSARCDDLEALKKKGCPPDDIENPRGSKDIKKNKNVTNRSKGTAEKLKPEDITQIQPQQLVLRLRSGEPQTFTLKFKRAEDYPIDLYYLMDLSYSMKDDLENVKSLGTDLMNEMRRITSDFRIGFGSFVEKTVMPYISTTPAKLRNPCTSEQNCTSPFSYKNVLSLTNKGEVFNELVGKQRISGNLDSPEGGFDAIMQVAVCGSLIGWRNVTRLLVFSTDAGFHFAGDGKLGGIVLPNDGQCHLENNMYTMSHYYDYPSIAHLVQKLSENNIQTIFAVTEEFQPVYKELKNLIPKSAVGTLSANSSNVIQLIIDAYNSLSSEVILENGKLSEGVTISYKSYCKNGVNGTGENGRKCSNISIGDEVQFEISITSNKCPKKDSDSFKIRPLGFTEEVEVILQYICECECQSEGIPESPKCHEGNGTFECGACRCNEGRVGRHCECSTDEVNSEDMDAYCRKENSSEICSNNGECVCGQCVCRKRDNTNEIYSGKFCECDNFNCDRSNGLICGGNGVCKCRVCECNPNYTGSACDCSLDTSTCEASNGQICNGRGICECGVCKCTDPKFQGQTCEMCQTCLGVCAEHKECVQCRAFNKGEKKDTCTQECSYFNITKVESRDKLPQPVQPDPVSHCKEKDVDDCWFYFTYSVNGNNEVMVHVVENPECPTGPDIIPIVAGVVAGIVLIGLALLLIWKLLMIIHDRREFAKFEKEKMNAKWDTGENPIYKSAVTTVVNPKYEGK
T6 sequence (P08648 42-894 limits assumed): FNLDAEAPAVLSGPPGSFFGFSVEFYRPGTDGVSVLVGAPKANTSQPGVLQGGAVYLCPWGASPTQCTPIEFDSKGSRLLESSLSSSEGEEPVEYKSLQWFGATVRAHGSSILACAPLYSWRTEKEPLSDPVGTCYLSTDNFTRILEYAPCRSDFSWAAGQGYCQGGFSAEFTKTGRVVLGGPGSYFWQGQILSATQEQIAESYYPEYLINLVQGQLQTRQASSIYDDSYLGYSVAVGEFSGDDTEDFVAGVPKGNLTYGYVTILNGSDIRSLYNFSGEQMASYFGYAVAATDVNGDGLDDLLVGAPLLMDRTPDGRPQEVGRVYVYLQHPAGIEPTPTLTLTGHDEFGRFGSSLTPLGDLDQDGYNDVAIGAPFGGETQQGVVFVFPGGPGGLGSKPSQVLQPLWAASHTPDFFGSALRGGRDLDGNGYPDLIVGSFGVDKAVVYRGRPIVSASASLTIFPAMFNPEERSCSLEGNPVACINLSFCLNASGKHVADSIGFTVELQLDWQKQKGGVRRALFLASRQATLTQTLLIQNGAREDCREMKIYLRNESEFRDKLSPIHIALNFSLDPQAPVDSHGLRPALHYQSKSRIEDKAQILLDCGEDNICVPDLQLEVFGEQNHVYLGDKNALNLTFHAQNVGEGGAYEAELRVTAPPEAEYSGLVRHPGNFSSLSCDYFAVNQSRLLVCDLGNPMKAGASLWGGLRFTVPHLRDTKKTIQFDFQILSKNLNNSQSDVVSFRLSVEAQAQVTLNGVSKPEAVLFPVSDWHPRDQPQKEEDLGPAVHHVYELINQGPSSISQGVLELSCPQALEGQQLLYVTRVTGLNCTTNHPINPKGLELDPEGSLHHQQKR
T6 sequence (P08648 895-1049 limits assumed): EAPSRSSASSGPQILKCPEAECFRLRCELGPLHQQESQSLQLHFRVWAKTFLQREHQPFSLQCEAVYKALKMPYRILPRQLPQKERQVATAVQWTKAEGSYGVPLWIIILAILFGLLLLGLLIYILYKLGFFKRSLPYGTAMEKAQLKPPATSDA
T6 sequence (P05556 21-798): as the sequence (P05556 21-798, change not shown) above
T2 sequence (P56199 29-1179): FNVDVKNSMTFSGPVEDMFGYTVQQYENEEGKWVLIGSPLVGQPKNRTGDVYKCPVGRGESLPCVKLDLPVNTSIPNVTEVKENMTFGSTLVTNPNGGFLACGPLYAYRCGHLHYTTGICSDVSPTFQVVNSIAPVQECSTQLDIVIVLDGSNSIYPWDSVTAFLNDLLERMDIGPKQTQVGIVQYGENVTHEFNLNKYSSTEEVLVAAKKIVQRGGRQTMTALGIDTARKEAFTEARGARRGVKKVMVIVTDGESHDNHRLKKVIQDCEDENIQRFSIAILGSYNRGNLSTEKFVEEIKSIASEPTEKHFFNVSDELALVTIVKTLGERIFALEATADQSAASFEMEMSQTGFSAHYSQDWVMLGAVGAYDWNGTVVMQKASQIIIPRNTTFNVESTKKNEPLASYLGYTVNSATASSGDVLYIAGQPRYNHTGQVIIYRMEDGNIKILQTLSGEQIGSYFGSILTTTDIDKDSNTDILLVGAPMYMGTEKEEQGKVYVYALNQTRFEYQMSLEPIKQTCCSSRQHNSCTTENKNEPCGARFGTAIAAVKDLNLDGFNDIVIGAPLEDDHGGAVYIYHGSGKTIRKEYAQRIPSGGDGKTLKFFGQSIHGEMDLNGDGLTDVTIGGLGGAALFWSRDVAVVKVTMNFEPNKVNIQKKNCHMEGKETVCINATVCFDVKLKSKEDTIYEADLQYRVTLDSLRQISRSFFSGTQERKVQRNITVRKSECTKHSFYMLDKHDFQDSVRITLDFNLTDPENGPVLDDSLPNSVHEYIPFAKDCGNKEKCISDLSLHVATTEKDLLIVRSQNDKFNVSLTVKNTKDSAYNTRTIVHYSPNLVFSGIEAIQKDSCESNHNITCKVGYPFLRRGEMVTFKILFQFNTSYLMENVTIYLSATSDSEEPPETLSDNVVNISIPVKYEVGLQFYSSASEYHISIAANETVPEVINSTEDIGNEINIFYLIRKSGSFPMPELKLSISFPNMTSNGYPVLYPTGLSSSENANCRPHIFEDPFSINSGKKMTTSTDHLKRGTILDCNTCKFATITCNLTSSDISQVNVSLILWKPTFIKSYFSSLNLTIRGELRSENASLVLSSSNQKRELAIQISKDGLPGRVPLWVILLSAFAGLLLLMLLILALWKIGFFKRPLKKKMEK
T2 sequence (P05556 21-798): as the sequence (P05556 21-798, change not shown) above

## natalizumab: clinical-grade monoclonal antibody anti-α4β1 produced by Biogen Co. [reference compound]
α4β1-VCAM-1 Fc chimera; ELISA binding assay, recombinant human VCAM-1 chimera, read-out: IC50 α4β1-VCAM-1 Fc chimera
  IC50: 0.01 µM
α1β1-collagen IV
  IC50: > 10000 µM
[1]; [2]
  IC50: 0.002 µM
[1]; [3]
  IC50: 0.005 µM
α9β1-VCAM-1 Fc chimera; ELISA binding assay per footnote b, α9-B1LBC3 overexpressed cells named in footnote a, read-out: IC50 α9β1-VCAM-1 Fc chimera
  IC50: 0.015 µM
α4β7-MAdCAM-1 Fc chimera; ELISA binding assay, recombinant human MAdCAM-1 chimera, read-out: IC50 α4β7-MAdCAM-1 Fc chimera
  IC50: 0.015 µM
α2β1-collagen I
  IC50: > 10000 µM
α5β1-fibronectin
  IC50: > 10000 µM

## CSCC[C@@H]1NC(=O)[C@H]([C@@H](C)O)NC(=O)CN(C(=O)[C@@H](N)CCCCN)CCNC(=O)NCCN(CC(=O)N[C@@H](CC(C)C)C(N)=O)C(=O)[C@H](CC(=O)O)NC(=O)[C@H](CC(C)C)NC1=O [visabron c (2–2)] (H-K[N(2-Aminoethyl)Gly]TMLD[N(2-Aminoethyl)Gly]L-NH2; linker 2-7 via CO)
α4β1-VCAM-1 Fc chimera
  IC50: 2.3 µM
α1β1-collagen IV
  IC50: > 10000 µM
[1]; [2]
  IC50: 0.5 µM
[1]; [3]
  IC50: 7 µM
α9β1-VCAM-1 Fc chimera
  IC50: 3.6 µM
α4β7-MAdCAM-1 Fc chimera
  IC50: > 500 µM
α2β1-collagen I
  IC50: > 10000 µM
α5β1-fibronectin
  IC50: > 10000 µM

## CSCC[C@@H]1NC(=O)[C@H]([C@@H](C)O)NC(=O)CN(C(=O)[C@@H](N)CCCCN)CCCCNC(=O)NCCCCN(CC(=O)N[C@@H](CC(C)C)C(N)=O)C(=O)[C@H](CC(=O)O)NC(=O)[C@H](CC(C)C)NC1=O [visabron c (4–4)] (H-K[Nlys]TMLD[Nlys]L-NH2; linker 2-7 via CO)
α4β1-VCAM-1 Fc chimera
  IC50: 0.4 µM
α1β1-collagen IV
  IC50: > 10000 µM
[1]; [2]
  IC50: 0.4 µM
[1]; [3]
  IC50: 5 µM
α9β1-VCAM-1 Fc chimera
  IC50: 0.4 µM
α4β7-MAdCAM-1 Fc chimera
  IC50: > 500 µM
α2β1-collagen I
  IC50: > 10000 µM
α5β1-fibronectin
  IC50: > 10000 µM

Reference: paper PMC8717366, “Synthesis and Pharmacological Characterization of Visabron, a Backbone Cyclic Peptide Dual Antagonist of α4β1 (VLA-4)/α9β1 Integrin for Therapy of Multiple Sclerosis” (JACS Au, 2021)
